# From patent US20240374631A1, “A COMPOSITION FOR IMPROVING GUT MICROBIOTA, BEHAVIOURAL PATTERN, ALPHA-SYNUCLEIN LEVELS, SLEEP PATTERN AND/OR SERUM MELATONIN” (GN Corporation Co Ltd, priority 2021, published 2024)
# Tested on: fecal metabolome
# Test: Fecal metabolome analysis (GC-MS peak height, PCA, OPLS-DA) in STAM model of NASH
# Assay type: in vivo, C57BL/6J mice
smiles,measurement,setting,value
CCCc1nc2c(C)cc(-c3nc4ccccc4n3C)cc2n1Cc1ccc(-c2ccccc2C(=O)O)cc1 [Telmisartan],"Peak height after normalization, 2-Aminobutyric acid-2TMS",Difference,17954.52
same,"Peak height after normalization, 2-Hydroxyisobutyric acid-2TMS",Difference,133880.36
same,"Peak height after normalization, 3-Aminoglutaric acid-3TMS",Difference,8627.53
same,"Peak height after normalization, 3-Hydroxybutyric acid-2TMS",Difference,−4608.17
same,"Peak height after normalization, 5-Aminovaleric acid-3TMS",Difference,26394.02
same,"Peak height after normalization, Glutamic acid-3TMS",Difference,382709.41
same,"Peak height after normalization, Glutamine-3TMS",Difference,30745.13
same,"Peak height after normalization, Glycine-3TMS",Difference,109331.29
same,"Peak height after normalization, Hypoxanthine-2TMS",Difference,23680.72
same,"Peak height after normalization, Lactic acid-2TMS",Difference,−35605.88
same,"Peak height after normalization, Leucine-2TMS",Difference,267732.46
same,"Peak height after normalization, Lysine-4TMS",Difference,360841.28
same,"Peak height after normalization, Malic acid-3TMS",Difference,−16354.66
same,"Peak height after normalization, Norvaline-TMS",Difference,37744.18
same,"Peak height after normalization, Phosphoric acid-3TMS",Difference,15228.48
same,"Peak height after normalization, Proline-2TMS",Difference,52750.51
same,"Peak height after normalization, Succinic acid-2TMS",Difference,50806.69
same,"Peak height after normalization, Taurine-3TMS",Difference,9869.33
same,"Peak height after normalization, Tyrosine-3TMS",Difference,116635.49
same,"Peak height after normalization, Uracil-2TMS",Difference,−3276.22
same,"Peak height after normalization, Valine-2TMS",Difference,267808.23
same,"Peak height after normalization, 2-Aminobutyric acid-2TMS",Post,43700.57
same,"Peak height after normalization, 3-Aminoglutaric acid-3TMS",Post,12436.04
same,"Peak height after normalization, 3-Hydroxybutyric acid-2TMS",Post,10891.34
same,"Peak height after normalization, Alanine-2TMS",Post,1268525.27
same,"Peak height after normalization, Glycerol-3TMS",Post,324467.91
same,"Peak height after normalization, Glycine-3TMS",Post,288456.14
same,"Peak height after normalization, Isoleucine-2TMS",Post,381173.16
same,"Peak height after normalization, Lactic acid-2TMS",Post,36363.66
same,"Peak height after normalization, Leucine-2TMS",Post,631954.96
same,"Peak height after normalization, Lysine-4TMS",Post,952876.14
same,"Peak height after normalization, Malic acid-3TMS",Post,38544.73
same,"Peak height after normalization, Methionine-2TMS",Post,168797.44
same,"Peak height after normalization, Norvaline-TMS",Post,110365.67
same,"Peak height after normalization, Phenylalamine-2TMS",Post,342996.16
same,"Peak height after normalization, Phosphoric acid-3TMS",Post,122301.92
same,"Peak height after normalization, Proline-2TMS",Post,151136.53
same,"Peak height after normalization, Taurine-3TMS",Post,24726.77
same,"Peak height after normalization, Tryptophan-3TMS",Post,28678.00
same,"Peak height after normalization, Uracil-2TMS",Post,71567.16
same,"Peak height after normalization, Valine-2TMS",Post,521841.20
same,"Peak height after normalization, Xanthine-3TMS",Post,103194.40
same,"Peak height after normalization, 3-Aminoglutaric acid-3TMS",Pre,3808.51
same,"Peak height after normalization, 3-Hydroxybutyric acid-2TMS",Pre,15499.52
same,"Peak height after normalization, 5-Aminovaleric acid-3TMS",Pre,28517.91
same,"Peak height after normalization, 5-Oxoproline-2TMS",Pre,113169.35
same,"Peak height after normalization, #Sz,899;-3TMS",Pre,124526.34
same,"Peak height after normalization, Aspartic acid-3TMS",Pre,183416.60
same,"Peak height after normalization, Glycerol-3TMS",Pre,283873.86
same,"Peak height after normalization, Hypoxanthine-2TMS",Pre,33144.25
same,"Peak height after normalization, Isoleucine-2TMS",Pre,175687.57
same,"Peak height after normalization, Lactic acid-2TMS",Pre,71969.33
same,"Peak height after normalization, Lysine-4TMS",Pre,592034.86
same,"Peak height after normalization, Malic acid-3TMS",Pre,54899.38
same,"Peak height after normalization, Methionine-2TMS",Pre,103825.98
same,"Peak height after normalization, Norvaline-TMS",Pre,72621.50
same,"Peak height after normalization, Phenylalamine-2TMS",Pre,208441.78
same,"Peak height after normalization, Phosphoric acid-3TMS",Pre,107073.44
same,"Peak height after normalization, Succinic acid-2TMS",Pre,263097.91
same,"Peak height after normalization, Taurine-3TMS",Pre,14857.44
same,"Peak height after normalization, Tryptophan-3TMS",Pre,16169.30
same,"Peak height after normalization, Tyrosine-3TMS",Pre,309190.46
same,"Peak height after normalization, Uracil-2TMS",Pre,74843.38
same,"Peak height after normalization, Valine-2TMS",Pre,254032.97
same,"Peak height after normalization, Xanthine-3TMS",Pre,101684.60
